Source: ChEMBL document CHEMBL1154446, “Synthesis and preliminary biological evaluation of new carbon-11 labeled tetrahydroisoquinoline derivatives as SERM radioligands for PET imaging of ER expression in breast cancer” (Eur J Med Chem, 2008)
The source made the active and inactive calls. The rule behind the calls is not given here.

Key:
Type in all cases: functional, cell-based
MCF7 [1] = test: Antiproliferative activity against human MCF7 cells at 0.625 nM after 24 hrs by MTS assay
MCF7 [2] = test: Antiproliferative activity against human MCF7 cells at >0.625 to 10 nM after 24 hrs by MTS assay
MCF7 [3] = test: Antiproliferative activity against human MCF7 cells at 0.3125 to 0.625 nM after 24 hrs by MTS assay

| Structure (SMILES) | Activity (MCF7 [1]) | Activity (MCF7 [2]) | Activity (MCF7 [3]) |
| --- | --- | --- | --- |
| CCC(=C(c1ccc(O)cc1)c1ccc(OCCN(C)C)cc1)c1ccccc1 | Active | Active |  |
| COC(=O)C1CCN(CCOc2ccc(C3(C)c4ccc(O)cc4CCN3c3ccc(F)cc3)cc2)CC1 (stereo unspecified) | inactive | Active |  |
| COC(=O)C1CCN(CCOc2ccc(C3(C)c4ccc(O)cc4CCN3c3ccc(Cl)cc3)cc2)CC1 (stereo unspecified) |  | Active | Active |
